From patent US8802702B2, “Compounds for reducing drug resistance and uses thereof” (The General Hospital Corporation, priority 2009, dated 2014)
Read-outs that look alike come from different tables or passages of the source.

What was measured:
SKOV-3TR cells = experiment: Reversal of drug resistance, cytotoxicity (MTT) assay in SKOV-3TR; format: cell-based; conditions: anti-cancer drug alone, no NSC23925, read-out: SKOV-3TR IC50
Protocol: FIGS. 1 (a-b) are graphs that depict the effects of NSC23925 on drug sensitivity in ovarian cancer cells; 1(a) depicts the effects of NSC23925 on sensitive (SKOV-3) and resistant (SKOV-3TR) cells; 1(b) depicts the effects of NSC23925 on sensitive (OVCAR8) and resistant (OVCAR8TR) cells. […] The relative sensitivity of each line to paclitaxel was determined by MTT assay, as described below in the Examples section, 6 days post treatment. […]
Drug cytotoxicity was assessed in vitro using the MTT assay. SKOV-3 and SKOV-3TR cells were used herein. Briefly, 2×10^3 cells per well were plated in 96-well plates in culture medium (RPMI 1640 supplemented with 10% fetal bovine serum and penicillin/streptomycin) containing increasing concentrations of drug. […] The resulting formazan product was dissolved with acid-isopropanol and the absorbance at a wavelength of 490 nm (A490) was read on a SPECTRAmax® Microplate Spectrophotometer (Molecular Devices, Sunnyvale, Calif.). The absorbance values were normalized by assigning the value of the control line in the medium without drug to 1.0 and the value of the no cell control to 0. Experiments were performed in triplicate.

OVCAR8TR cells = experiment: Reversal of drug resistance, cytotoxicity (MTT) assay in OVCAR8TR; format: cell-based, human; conditions: anti-cancer drug alone, no NSC23925, read-out: OVCAR8TR IC50
Protocol: FIGS. 1 (a-b) are graphs that depict the effects of NSC23925 on drug sensitivity in ovarian cancer cells; 1(a) depicts the effects of NSC23925 on sensitive (SKOV-3) and resistant (SKOV-3TR) cells; 1(b) depicts the effects of NSC23925 on sensitive (OVCAR8) and resistant (OVCAR8TR) cells. Cells were treated with the paclitaxel and NSC23925 in RPMI1640 complete media at the indicated concentrations. The relative sensitivity of each line to paclitaxel was determined by MTT assay, as described below in the Examples section, 6 days post treatment. A: Reversal of paclitaxel resistance by NSC23925 in SKOV-3TR cells. B: Reversal of paclitaxel resistance by NSC23925 in OVCAR8TR cells.
Drug cytotoxicity was assessed in vitro using the MTT assay. SKOV-3 and SKOV-3TR cells were used herein. Briefly, 2×10^3 cells per well were plated in 96-well plates in culture medium (RPMI 1640 supplemented with 10% fetal bovine serum and penicillin/streptomycin) containing increasing concentrations of drug. After 7 days of culture, 10 μl MTT (5 mg/ml in PBS, obtained from Sigma) were added to each well and the plates were incubated for 4 h. The resulting formazan product was dissolved with acid-isopropanol and the absorbance at a wavelength of 490 nm (A490) was read on a SPECTRAmax® Microplate Spectrophotometer (Molecular Devices, Sunnyvale, Calif.). The absorbance values were normalized by assigning the value of the control line in the medium without drug to 1.0 and the value of the no cell control to 0. Experiments were performed in triplicate.

KHOSR2 cells = experiment: Reversal of drug resistance, cytotoxicity assay in KHOSR2; format: cell-based, human; conditions: anti-cancer drug alone, no NSC23925, read-out: KHOSR2 IC50
[1] = background statement; cited from earlier work

SMILES | IC50 (SKOV-3TR cells; Homo sapiens, SKOV3TR, 144 h) [nM] | IC50 (OVCAR8TR cells; Homo sapiens, 144 h) [nM] | IC50 (KHOSR2 cells; Homo sapiens) [nM] | IC50 (SKOV-3TR cells) [nM] | IC50 (OVCAR8TR cells) [nM] | IC50 (KHOSR2 cells) [nM] | Reported toxicity / side effects at doses used to modify drug resistance [1]
COc1cccc2c1C(=O)c1c(O)c3c(c(O)c1C2=O)C[C@@](O)(C(=O)CO)C[C@@H]3O[C@H]1C[C@H](N)[C@H](O)[C@H](C)O1 [Doxorubicin, reference compound] | 22340 ± 200 | 27620 ± 256 | 10300 ± 566 |  |  |  | 
COc1cc2c(cc1O)CCN[C@]21CS[C@@H]2c3c(OC(C)=O)c(C)c4c(c3[C@H](COC1=O)N1[C@@H]2[C@H]2c3c(cc(C)c(OC)c3O)C[C@@H]([C@@H]1O)N2C)OCO4 [ET-743, reference compound] | 4 ± 2 | 6 ± 2 | 175 ± 25 |  |  |  | 
COc1c(C)cc2c(c1O)[C@@H]1[C@@H]3Cc4c(OC(C)=O)c(C)c5c(c4[C@H](CNC(=O)/C=C/c4cccc(C(F)(F)F)c4)N3[C@@H](O)[C@H](C2)N1C)OCO5 [PM00104, reference compound] |  |  |  | 6 ± 1 | 8 ± 2 | 143 ± 45 | 
CC(=O)O[C@H]1C(=O)[C@@]2(C)[C@H]([C@H](OC(=O)c3ccccc3)[C@]3(O)C[C@H](OC(=O)[C@H](O)[C@@H](NC(=O)c4ccccc4)c4ccccc4)C(C)=C1C3(C)C)[C@]1(OC(C)=O)CO[C@@H]1C[C@@H]2O [Paclitaxel, reference compound] | 310 ± 21 | 340 ± 32 | 210 ± 23 |  |  |  | 
C/C=C/C[C@@H](C)C(=O)[C@H]1C(=O)N[C@@H](C(C)C)C(=O)N(C)CC(=O)N(C)[C@@H](CC(C)C)C(=O)N[C@@H](C(C)C)C(=O)N(C)[C@@H](CC(C)C)C(=O)N[C@@H](C)C(=O)N[C@H](C)C(=O)N(C)[C@@H](CC(C)C)C(=O)N(C)[C@@H](CC(C)C)C(=O)N(C)[C@@H](C(C)C)C(=O)N1C [PSC 833] |  |  |  |  |  |  | cerebellar ataxia and hyperbilirubinemia toxicities
